In ChEMBL document CHEMBL1201862, “PubChem BioAssay data set” (2004):
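Step 1: Grow cells in 96-well plates. Step 2: Expose to compound for 48 hours at 5 concentrations. Step 3: Interpolate endpoints linearly; if unreached, use highest concentration. At the GI50, growth is halved.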 Calls of active or inactive are those of the source. Rule as the data show it: active = GI50 up to about 1.1 µM and inactive = higher.

Experiments:
Experiment in all cases: NCI tumour cell line growth inhibition, 48 h
[1] = test system: 786-0
[2] = test system: A498
[3] = test system: A549
[4] = test system: ACHN
[5] = test system: BT-549
[6] = test system: CAKI-1
[7] = test system: CCRF-CEM
[8] = test system: COLO 205
[9] = test system: DU-145
[10] = test system: EKVX
[11] = test system: HCT-116
[12] = test system: HCT-15
[13] = test system: HL-60
[14] = test system: HOP-62
[15] = test system: HOP-92
[16] = test system: HT-29
[17] = test system: Hs-578T
[18] = test system: IGROV-1
[19] = test system: K562
[20] = test system: KM12
[21] = test system: LOX IMVI
[22] = test system: M14
[23] = test system: MCF7
[24] = test system: MDA-MB-231
[25] = test system: MDA-MB-435
[26] = test system: MDA-N
[27] = test system: MOLT-4
[28] = test system: Malme-3M
[29] = test system: NCI-H23
[30] = test system: NCI-H460
[31] = test system: NCI-H522
[32] = test system: NCI/ADR-RES
[33] = test system: OVCAR-3
[34] = test system: OVCAR-4
[35] = test system: OVCAR-5
[36] = test system: OVCAR-8
[37] = test system: PC-3
[38] = test system: RPMI-8226
[39] = test system: RXF 393
[40] = test system: SF-268
[41] = test system: SF-295
[42] = test system: SK-MEL-28
[43] = test system: SK-MEL-2
[44] = test system: SK-MEL-5
[45] = test system: SK-OV-3
[46] = test system: SN12C
[47] = test system: SNB-19
[48] = test system: SNB-75
[49] = test system: SR
[50] = test system: SW-620
[51] = test system: T47D
[52] = test system: TK-10
[53] = test system: U-251
[54] = test system: UACC-257
[55] = test system: UACC-62
[56] = test system: UO-31
[57] = test system: NCI-H226
[58] = test system: SF-539

COc1cc(CCN)c(OC)c(OC)c1
GI50 [1]: > 100 µM (inactive)
GI50 [2]: > 100 µM (inactive)
GI50 [3]: > 100 µM (inactive)
GI50 [4]: > 100 µM (inactive)
GI50 [5]: > 100 µM (inactive)
GI50 [6]: > 100 µM (inactive)
GI50 [7]: 34.8 µM (inactive)
GI50 [8]: > 100 µM (inactive)
GI50 [9]: > 100 µM (inactive)
GI50 [10]: > 100 µM (inactive)
GI50 [11]: 44.4 µM (inactive)
GI50 [12]: > 100 µM
GI50 [13]: 40.4 µM (inactive)
GI50 [14]: > 100 µM (inactive)
GI50 [15]: 62.4 µM (inactive)
GI50 [16]: > 100 µM (inactive)
GI50 [17]: > 100 µM (inactive)
GI50 [18]: > 100 µM (inactive)
GI50 [19]: 62.1 µM (inactive)
GI50 [20]: > 100 µM (inactive)
GI50 [21]: > 100 µM (inactive)
GI50 [22]: 58.7 µM (inactive)
GI50 [23]: 42.3 µM (inactive)
GI50 [24]: > 100 µM (inactive)
GI50 [25]: 24.8 µM (inactive)
GI50 [26]: 39.2 µM (inactive)
GI50 [27]: > 100 µM (inactive)
GI50 [28]: > 100 µM (inactive)
GI50 [29]: > 100 µM (inactive)
GI50 [30]: > 100 µM (inactive)
GI50 [31]: > 100 µM (inactive)
GI50 [32]: > 100 µM (inactive)
GI50 [33]: > 100 µM (inactive)
GI50 [34]: > 100 µM (inactive)
GI50 [35]: > 100 µM (inactive)
GI50 [36]: > 100 µM (inactive)
GI50 [37]: > 100 µM (inactive)
GI50 [38]: 93.3 µM (inactive)
GI50 [39]: > 100 µM (inactive)
GI50 [40]: > 100 µM (inactive)
GI50 [41]: > 100 µM (inactive)
GI50 [42]: > 100 µM (inactive)
GI50 [43]: > 100 µM (inactive)
GI50 [44]: 23.6 µM (inactive)
GI50 [45]: > 100 µM (inactive)
GI50 [46]: > 100 µM (inactive)
GI50 [47]: > 100 µM (inactive)
GI50 [48]: > 100 µM (inactive)
GI50 [49]: 50.8 µM (inactive)
GI50 [50]: 36.2 µM (inactive)
GI50 [51]: > 100 µM (inactive)
GI50 [52]: > 100 µM (inactive)
GI50 [53]: > 100 µM (inactive)
GI50 [54]: > 100 µM (inactive)
GI50 [55]: > 100 µM (inactive)
GI50 [56]: > 100 µM (inactive)

CCOC(=O)C1=C(C)NC(=O)N([N+](=O)[O-])C1c1ccccc1C(F)(F)F (centres undefined)
GI50 [2]: > 100 µM (inactive)
GI50 [3]: > 100 µM (inactive)
GI50 [4]: > 100 µM (inactive)
GI50 [5]: 54.6 µM (inactive)
GI50 [6]: 23.1 µM (inactive)
GI50 [7]: 26.6 µM (inactive)
GI50 [8]: > 100 µM (inactive)
GI50 [9]: 94.2 µM (inactive)
GI50 [11]: 35.7 µM (inactive)
GI50 [12]: 55.2 µM
GI50 [13]: 55.2 µM (inactive)
GI50 [14]: 70.6 µM (inactive)
GI50 [15]: > 100 µM (inactive)
GI50 [16]: 75.2 µM (inactive)
GI50 [17]: 70.3 µM (inactive)
GI50 [18]: > 100 µM (inactive)
GI50 [19]: 72.6 µM (inactive)
GI50 [21]: 31 µM (inactive)
GI50 [22]: 43.5 µM (inactive)
GI50 [23]: 52.6 µM (inactive)
GI50 [24]: > 100 µM (inactive)
GI50 [25]: 45.1 µM (inactive)
GI50 [26]: 21.8 µM (inactive)
GI50 [27]: > 100 µM (inactive)
GI50 [28]: 24.3 µM (inactive)
GI50 [57]: > 100 µM (inactive)
GI50 [29]: > 100 µM (inactive)
GI50 [30]: > 100 µM (inactive)
GI50 [32]: 34.1 µM (inactive)
GI50 [33]: 47.5 µM (inactive)
GI50 [34]: 27.2 µM (inactive)
GI50 [35]: > 100 µM (inactive)
GI50 [36]: 69.7 µM (inactive)
GI50 [37]: 33.3 µM (inactive)
GI50 [38]: 23.4 µM (inactive)
GI50 [39]: 61 µM (inactive)
GI50 [40]: 53.1 µM (inactive)
GI50 [41]: 57.7 µM (inactive)
GI50 [58]: 28 µM (inactive)
GI50 [42]: 24.8 µM (inactive)
GI50 [43]: > 100 µM (inactive)
GI50 [44]: 42.3 µM (inactive)
GI50 [45]: > 100 µM (inactive)
GI50 [46]: > 100 µM (inactive)
GI50 [47]: > 100 µM (inactive)
GI50 [49]: 31.8 µM (inactive)
GI50 [50]: 52.6 µM (inactive)
GI50 [51]: 35.4 µM (inactive)
GI50 [52]: 98.2 µM (inactive)
GI50 [53]: 69 µM (inactive)
GI50 [54]: > 100 µM (inactive)
GI50 [55]: 49.4 µM (inactive)
GI50 [56]: > 100 µM (inactive)

CN(C)CCCNc1ccnc2cc([N+](=O)[O-])ccc12
GI50 [1]: 10.4 µM (inactive)
GI50 [2]: 17.2 µM (inactive)
GI50 [3]: 22.5 µM (inactive)
GI50 [4]: 19 µM (inactive)
GI50 [5]: 19.1 µM (inactive)
GI50 [6]: 26.9 µM (inactive)
GI50 [7]: > 100 µM (inactive)
GI50 [8]: 2.65 µM (inactive)
GI50 [9]: 27.8 µM (inactive)
GI50 [11]: 6.31 µM (inactive)
GI50 [12]: 12.1 µM
GI50 [14]: 16 µM (inactive)
GI50 [15]: 3.38 µM (inactive)
GI50 [16]: 2.68 µM (inactive)
GI50 [17]: 17.9 µM (inactive)
GI50 [18]: 4.06 µM (inactive)
GI50 [19]: > 100 µM (inactive)
GI50 [20]: 10.2 µM (inactive)
GI50 [21]: 11.4 µM (inactive)
GI50 [22]: 12 µM (inactive)
GI50 [23]: 4.47 µM (inactive)
GI50 [24]: 13.3 µM (inactive)
GI50 [25]: 14.8 µM (inactive)
GI50 [26]: 12.1 µM (inactive)
GI50 [27]: > 100 µM (inactive)
GI50 [28]: 3.44 µM (inactive)
GI50 [57]: 14.9 µM (inactive)
GI50 [29]: 11.7 µM (inactive)
GI50 [30]: 4.97 µM (inactive)
GI50 [31]: 3.6 µM (inactive)
GI50 [32]: 20 µM (inactive)
GI50 [33]: 5.11 µM (inactive)
GI50 [34]: 3.35 µM (inactive)
GI50 [35]: 20.7 µM (inactive)
GI50 [36]: 13.9 µM (inactive)
GI50 [37]: 14.1 µM (inactive)
GI50 [38]: 59.2 µM (inactive)
GI50 [39]: 11.2 µM (inactive)
GI50 [40]: 21 µM (inactive)
GI50 [41]: 20.4 µM (inactive)
GI50 [58]: 16.3 µM (inactive)
GI50 [42]: 36.2 µM (inactive)
GI50 [43]: 14.5 µM (inactive)
GI50 [44]: 11.9 µM (inactive)
GI50 [45]: 21.2 µM (inactive)
GI50 [46]: 17.2 µM (inactive)
GI50 [48]: 23.3 µM (inactive)
GI50 [49]: > 100 µM (inactive)
GI50 [50]: 7.45 µM (inactive)
GI50 [51]: 5.98 µM (inactive)
GI50 [52]: 30.7 µM (inactive)
GI50 [53]: 23.7 µM (inactive)
GI50 [54]: 13.9 µM (inactive)
GI50 [55]: 18.8 µM (inactive)
GI50 [56]: 16.9 µM (inactive)
